# Reference: patent publication US6949574B2 (Bristol-Myers Squibb Company, priority 2002, dated 2005)
# Where two headings read alike, the source gives them in different places.
# Molecular target: T1, human FAAH (Homo sapiens, UniProt O00519)
# T1 construct: expressed in transfected cells; host or cells: H4 cells (H4-FAAH, Geneticin-selected); crude membrane homogenates
# T1 sequence (O00519 1-579): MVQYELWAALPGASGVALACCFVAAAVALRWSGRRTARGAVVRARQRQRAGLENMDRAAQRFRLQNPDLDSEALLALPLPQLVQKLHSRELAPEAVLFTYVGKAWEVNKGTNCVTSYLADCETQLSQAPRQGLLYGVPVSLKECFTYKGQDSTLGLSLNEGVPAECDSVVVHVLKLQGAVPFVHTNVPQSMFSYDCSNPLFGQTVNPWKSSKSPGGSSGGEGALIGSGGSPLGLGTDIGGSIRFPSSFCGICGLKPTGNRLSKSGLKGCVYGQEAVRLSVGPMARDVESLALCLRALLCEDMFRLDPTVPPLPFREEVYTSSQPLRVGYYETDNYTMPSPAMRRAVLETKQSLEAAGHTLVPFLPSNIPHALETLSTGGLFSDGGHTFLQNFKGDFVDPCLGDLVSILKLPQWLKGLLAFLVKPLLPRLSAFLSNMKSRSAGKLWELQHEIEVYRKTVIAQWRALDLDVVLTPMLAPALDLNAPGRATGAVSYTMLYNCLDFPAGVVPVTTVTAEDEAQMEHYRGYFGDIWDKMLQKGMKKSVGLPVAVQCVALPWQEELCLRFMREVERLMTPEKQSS
# Assay: FAAH activity in membrane homogenates of H4-FAAH cells, [3H]-anandamide hydrolysis
# Assay type: biochemical
# Experimental: Homogenates of crude membranes were prepared from H4 cells that express transfected human FAAH (H4-FAAH cells). Briefly, cells were grown in DMEM supplemented with 10% FBS and Geneticin at a final concentration of 500 μg/ml (Gibco BRL, Rockville, Md.). Confluent cultures of H4-FAAH cells were rinsed twice with phosphate-buffered saline [138 mM NaCl, 4.1 mM KCl, 5.1 mM Na2PO4, 1.5 mM KH2PO4 (pH 7.5), 37° C.] and incubated for 5 to 10 minutes at 4° C. in lysis buffer [1 mM sodium bicarbonate]. Cells were transferred from plates to polypropylene tubes (16×100 mm), homogenized and centrifuged at 32,000×g for 30 minutes. Pellets were resuspended by homogenization in lysis buffer and centrifuged at 32,000×g for 30 minutes. Pellets were resuspended in lysis buffer (15-20 μg protein/ml) then stored at −80° C. until needed. On the day of an experiment, membranes were diluted to 2.67 μg protein/ml in 125 mM Tris-Cl, pH 9.0.
# Activity of FAAH was measured using a modification of the method described by Omeir et al., 1995 (Life Sci 56:1999, 1995). Membrane homogenates (240 ng protein) were incubated at room temperature for one hour with 1.67 nM anandamide [ethanolamine 1-^3H] (available from American Radiolabeled Chemical Inc., St Louis, Mo.) and 10 μM anandamide (available from Sigma/RBI, St. Louis, Mo.) in the absence and presence of inhibitors. The reaction was stopped by the addition of 1 volume of a solution of 1:1 methanol and dichloroethane. The mixture was shaken and then centrifuged at 1000×g for 15 minutes to separate the aqueous and organic phases. An aliquot of the aqueous phase, containing [^3H]-ethanolamine was withdrawn and counted by scintillation spectroscopy. Data were expressed as the percentage of [^3H]-ethanolamine formed versus vehicle, after subtraction of the background radioactivity determined in the presence of 10 μM arachidonyl trifluoromethyl ketone (ATFMK), an inhibitor of FAAH. IC50 values were determined using a four-parameter logistic equation for dose-response curves.
# [1] = H4-FAAH cell membranes, 10 μM anandamide, room temperature, one hour, read-out: IC50
Structure (SMILES),IC50 [1],IC50
"O=C(Nc1ccc(OCCCc2ccccc2)cc1)O/N=C/c1cccnc1 [Example 80, 3-Pyridinecarboxaldehyde, O-[[[4-(3-phenylpropoxy)phenyl]amino]carbonyl]oxime]",< 10 nM,–
"O=C(Nc1ccc(OCc2ccccc2)cc1)O/N=C/c1ccc(F)cc1 [Example 81, 4-Fluorobenzaldehyde, O-[[[4-(phenylmethoxy)phenyl]amino]carbonyl]oxime]",< 10 nM,–
"O=C(Nc1ccc(OCCc2ccccc2)cc1)O/N=C/c1ccc(F)cc1 [Example 82, 4-Fluorobenzaldehyde, O-[[[4-(2-phenylethoxy)phenyl]amino]carbonyl]oxime]",< 10 nM,–
"O=C(Nc1ccc(OCCCc2ccccc2)cc1)O/N=C/c1ccc(F)cc1 [Example 83, 4-Fluorobenzaldehyde, O-[[[4-(3-phenylpropoxy)phenyl]amino]carbonyl]oxime]",< 10 nM,–
"O=C(Nc1ccc(OCc2ccccc2)cc1)O/N=C/c1ccccc1 [Example 84, Benzaldehyde, O-[[[4-(phenylmethoxy)phenyl]amino]carbonyl]oxime]",< 10 nM,–
"O=C(Nc1ccc(OCCc2ccccc2)cc1)O/N=C/c1ccccc1 [Example 85, Benzaldehyde, O-[[[4-(2-phenylethoxy)phenyl]amino]carbonyl]oxime]",< 10 nM,–
"O=C(Nc1ccc(OCCCc2ccccc2)cc1)O/N=C/c1ccccc1 [Example 86, Benzaldehyde, O-[[[4-(3-phenylpropoxy)phenyl]amino]carbonyl]oxime]",< 10 nM,–
"O=C(Nc1cccc(Oc2ccccc2)c1)O/N=C/c1cccnc1 [Example 87, 3-Pyridinecarboxaldehyde, O-[[(3-phenoxyphenyl)amino]carbonyl]oxime]",< 10 nM,–
"O=C(Nc1cccc(Oc2ccccc2)c1)O/N=C/c1ccc(F)cc1 [Example 88, 4-Fluorobenzaldehyde, O-[[(3-phenoxyphenyl)amino]carbonyl]oxime]",< 10 nM,–
"O=C(Nc1cccc(Oc2ccccc2)c1)O/N=C/c1ccccc1 [Example 91, Benzaldehyde, O-[[(3-phenoxyphenyl)amino]carbonyl]oxime]",< 10 nM,–
"O=C(Nc1ccccc1Oc1ccccc1)O/N=C/c1cccnc1 [Example 92, 3-Pyridinecarboxaldehyde, O-[[(2-phenoxyphenyl)amino]carbonyl]oxime]",> 500 nM,–
"CCCCCCOc1ccc(NC(=O)Oc2ccccc2)cc1 [Example 93, 4-Hexyloxyphenylcarbamic acid, phenyl ester]",10 to 100 nM,–
"CCCCCCOc1ccc(NC(=O)Oc2ccccc2F)cc1 [Example 94, 4-Hexyloxyphenylcarbamic acid, 2-fluorophenyl ester]",> 500 nM,–
"CCCCOc1ccc(NC(=O)OC)cc1 [Example 95, 4-Butoxyphenylcarbamic acid, methyl ester]",> 500 nM,–
"CCCCCCCOc1ccc(NC(=O)Oc2ccccc2)cc1 [Example 96, 4-Heptyloxyphenylcarbamic acid, phenyl ester]",< 10 nM,–
"CCCCCCCOc1ccc(NC(=O)Oc2ccccc2F)cc1 [Example 97, 4-Heptyloxyphenylcarbamic acid, 2-fluorophenyl ester]",10 to 100 nM,–
"CCCCCCCCOc1ccc(NC(=O)Oc2ccccc2)cc1 [Example 98, 4-Octyloxyphenylcarbamic acid, phenyl ester]",< 10 nM,–
"CCCCCCCCOc1ccc(NC(=O)Oc2ccccc2F)cc1 [Example 99, 4-Octyloxyphenylcarbamic acid, 2-fluorophenyl ester]",10 to 100 nM,–
CCCCOc1ccc(NC(=O)Oc2ccc(Cl)cc2)cc1 [Example 100],10 to 100 nM,–
"CCCCCCCCCCOc1ccc(NC(=O)Oc2ccccc2)cc1 [Example 101, 4-Decyloxyphenylcarbamic acid, phenyl ester]",–,< 10 nM
"CCCCCCCCCCOc1ccc(NC(=O)Oc2ccccc2F)cc1 [Example 102, 4-Decyloxyphenylcarbamic acid, 2-fluorophenyl ester]",< 10 nM,–

Structure (SMILES),IC50 [1],IC50
"CCCCCCCCCCCOc1ccc(NC(=O)Oc2ccccc2)cc1 [Example 103, 4-Undecyloxyphenylcarbamic acid, phenyl ester]",–,< 10 nM
"CCCCCCCCCCCOc1ccc(NC(=O)Oc2ccccc2F)cc1 [Example 104, 4-Undecyloxyphenylcarbamic acid, 2-fluorophenyl ester]",–,10 to 100 nM
"CCCCCCCCCCCCOc1ccc(NC(=O)Oc2ccccc2)cc1 [Example 105, 4-Dodecyloxyphenylcarbamic acid, phenyl ester]",< 10 nM,–
"CCCCCCCCCCCCOc1ccc(NC(=O)Oc2ccccc2F)cc1 [Example 106, 4-Dodecyloxyphenylcarbamic acid, 2-fluorophenyl ester]",10 to 100 nM,–
"CCCCOc1ccc(NC(=O)Oc2ccccc2F)cc1 [Example 107, 4-Butoxyphenylcarbamic acid, 2-fluorophenyl ester]",101 to 500 nM,–
"CCCCOc1ccc(NC(=O)Oc2ccc(F)cc2)cc1 [Example 108, 4-Butoxyphenylcarbamic acid, 4-fluorophenyl ester]",101 to 500 nM,–
"CCCCOc1ccc(NC(=O)Oc2ccc(F)c(F)c2)cc1 [Example 109, 4-Butoxyphenylcarbamic acid, 3,4-difluorophenyl ester]",> 500 nM,–
"CCCCOc1ccc(NC(=O)Oc2ccccc2OC)cc1 [Example 110, 4-Butoxyphenylcarbamic acid, 2-methoxyphenyl ester]",> 500 nM,–
"CCCCOc1ccc(CNC(=O)Oc2ccccc2)cc1 [Example 111, 4-(Butoxyphenylmethyl)carbamic acid, phenyl ester]",< 10 nM,–
"CCCCOc1ccc(CNC(=O)Oc2ccccc2F)cc1 [Example 112, 4-(Butoxyphenylmethyl)carbamic acid, 2-fluorophenyl ester]",< 10 nM,–
"CCCCOc1ccc(CNC(=O)Oc2ccc(OC)cc2)cc1 [Example 113, 4-(Butoxyphenylmethyl)carbamic acid, 4-methoxyphenyl ester]",< 10 nM,–
"CCCCOc1ccc(CNC(=O)Oc2cccc3ccccc23)cc1 [Example 115, 4-(Butoxyphenylmethyl)carbamic acid, 1-naphthalenyl ester]",10 to 100 nM,–
"CCCCOc1ccc(CNC(=O)Oc2ccc3ccccc3c2)cc1 [Example 116, 4-(Butoxyphenylmethyl)carbamic acid, 2-naphthalenyl ester]",10 to 100 nM,–
"CCCCOc1ccc(CNC(=O)Oc2ccc(C(C)C)cc2)cc1 [Example 117, 4-(Butoxyphenylmethyl)carbamic acid, 4-(1-methylethyl)phenyl ester]",10 to 100 nM,–
"CCCCOc1ccc(CNC(=O)Oc2cccc(N(C)C)c2)cc1 [Example 118, 4-(Butoxyphenylmethyl)carbamic acid, 3-(dimethylamino)phenyl ester]",10 to 100 nM,–
"CCCCOc1ccc(CNC(=O)Oc2ccc(C(F)(F)F)cc2)cc1 [Example 119, 4-(Butoxyphenylmethyl)carbamic acid, 4-(trifluoromethyl)phenyl ester]",10 to 100 nM,–
"CCCCOc1ccc(CNC(=O)Oc2ccc(F)cc2F)cc1 [Example 120, 4-(Butoxyphenylmethyl)carbamic acid, 2,4-difluorophenyl ester]",< 10 nM,–
"CCCCOc1ccc(CNC(=O)Oc2ccc(F)cc2)cc1 [Example 121, 4-(Butoxyphenylmethyl)carbamic acid, 4-fluorophenyl ester]",< 10 nM,–
"CCCCOc1ccc(CNC(=O)Oc2cccc(Cl)c2)cc1 [Example 122, 4-(Butoxyphenylmethyl)carbamic acid, 3-chlorophenyl ester]",10 to 100 nM,–
"O=C(Nc1ccc(Oc2ccccc2)cc1)Oc1ccccc1F [Example 123, 4-Phenoxyphenylcarbamic acid, 2-fluorophenyl ester]",> 500 nM,–
"CCc1ccc(-c2ccc(NC(=O)Oc3ccccc3F)cc2)cc1 [Example 124, 4′-Ethyl-[1,1′-biphenyl]-4-ylcarbamic acid, 2-fluorophenyl ester]",–,> 500 nM
